Structures can show the parent of a compound that is named as a salt. Where two headings read alike, the source gives them in different places.
How the values were obtained:
[1] = system: IL-23p19; experiment: LPS induced IL23p19 in THP-1 cells (with IFNγ primed) assay; assay type: cell-based, Human; conditions: THP-1 cells, IFNγ primed, LPS 1 ug/mL, 18 hours, 10 pt, read-out: IL23-p19 ELISA, THP1-IFNy, LPS, 10 pt EC50
Method in brief: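 Readout is secreted IL-23p19, quantified by chemiluminescent sandwich ELISA after 18 h LPS (1 ug/mL) stimulation of THP-1 cells that had been IFNγ-primed (50 ng/mL, ~18 h) and given compound 1 h beforehand at 37 °C. EC50 derived by curve fit; cytotoxicity tracked with Cell Titer Glo.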

[2] = system: IL-23 (p19/p40); experiment: IL23-p19 ELISA, Dendritic, LPS (compound screening using DC cells); assay type: cell-based, Human; conditions: PBMC-derived DC cells, IFNγ primed, LPS 1 μg/ml, 18 hours, 10 pt, read-out: IL23-p19 ELISA, Dendritic, LPS, 10 pt, EC50
Method in brief: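 IL-23 in supernatants quantified by sandwich ELISA (anti-p19 capture, biotinylated anti-p40 detection, chemiluminescent readout) after 18 h LPS (1 μg/ml) stimulation. Cells were monocyte-derived DCs (GM-CSF/IL-4, 7 d), IFNγ-primed 24 h and given compound 1 h before LPS; viability by CellTiter Glo.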

EC50 ([1]; Homo sapiens, THP-1, 18 h)	EC50 ([2]; Homo sapiens, 18 h)	SMILES	other results
–	–	CCO[C@H]1C[C@@H](n2cc(NC(=O)c3csc(-c4cnn(COP(=O)(O)O)c4)n3)c(-c3ncccc3F)n2)C1 [II-164, (4-(4-((1-((cis)-3-ethoxycyclobutyl)-3-(3-fluoropyridin-2-yl)-1H-pyrazol-4-yl)carbamoyl)thiazol-2-yl)-1H-pyrazol-1-yl)methyl disodium phosphate]	EC50 [1]: 111 nM; EC50 [2]: 912 nM
84.4 nM	288 nM	COCCOCCn1cc(NC(=O)c2csc(-c3cn[nH]c3)n2)c(-c2nccs2)n1 [II-113, N-(1-(2-(2-methoxyethoxy)ethyl)-3-(thiazol-2-yl)-1H-pyrazol-4-yl)-2-(1H-pyrazol-4-yl)thiazole-4-carboxamide]	–
196 nM	298 nM	CC(OC(=O)C(C)C)OC(=O)n1cc(-c2nc(C(=O)Nc3cn(C)nc3-c3ccccn3)cs2)cn1 (centres unmarked) [II-2, 1-(isobutyryloxy)ethyl 4-(4-((1-methyl-3-(pyridin-2-yl)-1H-pyrazol-4-yl)carbamoyl)thiazol-2-yl)-1H-pyrazole-1-carboxylate]	–
49.1 nM	90.4 nM	O=C(Nc1cn([C@H]2C[C@@H](OCC(F)(F)F)C2)nc1-c1cccc(F)n1)c1csc(-c2cn[nH]c2)n1 [II-170, N-(3-(6-fluoropyridin-2-yl)-1-((cis)-3-(2,2,2-trifluoroethoxy)cyclobutyl)-1H-pyrazol-4-yl)-2-(1H-pyrazol-4-yl)thiazole-4-carboxamide]	–
300 nM	337 nM	COCCn1cc(NC(=O)c2ccc(-c3cnn(C(=O)OC(C)OC(=O)C(C)C)c3)o2)c(-c2ccccn2)n1 (centres unmarked) [Compound I-19, 1-(isobutyryloxy)ethyl 4-(5-((1-(2-methoxyethyl)-3-(pyridin-2-yl)-1H-pyrazol-4-yl)carbamoyl)furan-2-yl)-1H-pyrazole-1-carboxylate]	–
–	–	CCO[C@H]1C[C@@H](n2cc(NC(=O)c3csc(-c4cn[nH]c4F)n3)c(-c3ccccn3)n2)C1 [II-73, N-(1-((1s,3s)-3-ethoxycyclobutyl)-3-(pyridin-2-yl)-1H-pyrazol-4-yl)-2-(5-fluoro-1H-pyrazol-4-yl)thiazole-4-carboxamide]	EC50 [1]: 369 nM; EC50 [2]: 343 nM
104 nM	22.1 nM	COc1ccc(-c2nn(C)cc2NC(=O)c2ccc(-c3cn[nH]c3)o2)nc1 [Compound I-109, N-(3-(5-methoxypyridin-2-yl)-1-methyl-1H-pyrazol-4-yl)-5-(1H-pyrazol-4-yl)furan-2-carboxamide]	–
167 nM	178 nM	COCCOCCn1cc(NC(=O)c2csc(-c3c[nH]nc3C)n2)c(-c2ccccn2)n1 [II-39, N-(1-(2-(2-methoxyethoxy)ethyl)-3-(pyridin-2-yl)-1H-pyrazol-4-yl)-2-(3-methyl-1H-pyrazol-4-yl)thiazole-4-carboxamide]	–
98.6 nM	44.4 nM	O=C(Nc1cn(C2CCC2)nc1-c1ccccn1)c1csc(-c2cn[nH]c2)n1 [II-121, N-(1-cyclobutyl-3-(pyridin-2-yl)-1H-pyrazol-4-yl)-2-(1H-pyrazol-4-yl)thiazole-4-carboxamide]	–
85.3 nM	451 nM	O=C(Nc1cn(CCOCC(F)(F)F)nc1-c1ccccn1)c1coc(-c2cc[nH]n2)n1 [III-7, 2-(1H-pyrazol-3-yl)-N-(3-(pyridin-2-yl)-1-(2-(2,2,2-trifluoroethoxy)ethyl)-1H-pyrazol-4-yl)oxazole-4-carboxamide]	–
–	–	Cn1cc(NC(=O)c2csc(-c3cnn(COP(=O)(O)O)c3)n2)c(-c2ccccn2)n1 [II-36, Sodium (4-(4-((1-methyl-3-(pyridin-2-yl)-1H-pyrazol-4-yl)carbamoyl)thiazol-2-yl)-1H-pyrazol-1-yl)methyl phosphate]	EC50 ([1]; phosphate): 165 nM; EC50 ([2]; phosphate): 241 nM
399 nM	61.2 nM	CCO[C@@H]1C[C@H](n2cc(NC(=O)c3csc(-c4cn[nH]c4)n3)c(-c3ccccn3)n2)C1F (stereo partly drawn) [II-155, N-(1-((cis)-3-ethoxy-2-fluorocyclobutyl)-3-(pyridin-2-yl)-1H-pyrazol-4-yl)-2-(1H-pyrazol-4-yl)thiazole-4-carboxamide]	–
5520 nM	7500 nM	CC1(Cn2cc(-c3ccc(C(=O)Nc4cn(CC5(C)COC5)nc4-c4ccccn4)o3)cn2)COC1 [Compound I-48, 5-(1-((3-methyloxetan-3-yl)methyl)-1H-pyrazol-4-yl)-N-(1-((3-methyloxetan-3-yl)methyl)-3-(pyridin-2-yl)-1H-pyrazol-4-yl)furan-2-carboxamide formate]	–
21.7 nM	37.2 nM	O=C(Nc1cn(C2CCOCC2)nc1-c1ccccn1)c1ccc(-c2cn[nH]c2)o1 [Compound I-23, 5-(1H-pyrazol-4-yl)-N-(3-(pyridin-2-yl)-1-(tetrahydro-2H-pyran-4-yl)-1H-pyrazol-4-yl)furan-2-carboxamide]	–
48.1 nM	115 nM	CCO[C@H]1C[C@@H](n2cc(NC(=O)c3ccc(-c4cn[nH]c4)o3)c(-c3nccs3)n2)C1 [Compound I-62, N-(1-((1s,3s)-3-ethoxycyclobutyl)-3-(thiazol-2-yl)-1H-pyrazol-4-yl)-5-(1H-pyrazol-4-yl)furan-2-carboxamide formate]	–
–	–	CCO[C@H]1C[C@@H](n2cc(NC(=O)c3csc(-c4cnn(COP(=O)(O)O)c4)n3)c(-c3ccccn3)n2)C1 [II-16, (4-(4-((1-((1,3-cis)-3-ethoxycyclobutyl)-3-(pyridin-2-yl)-1H-pyrazol-4-yl)carbamoyl)thiazol-2-yl)-1H-pyrazol-1-yl)methyl phosphate bis-sodium salt]	EC50 ([1]; phosphate bis-sodium salt): 121 nM; EC50 ([2]; phosphate bis-sodium salt): 525 nM
140 nM	327 nM	CCOCCn1cc(NC(=O)c2csc(-c3cn[nH]c3)n2)c(-c2nccs2)n1 [II-109, N-(1-(2-ethoxyethyl)-3-(thiazol-2-yl)-1H-pyrazol-4-yl)-2-(1H-pyrazol-4-yl)thiazole-4-carboxamide]	–
6.4 nM	9.6 nM	CN(C)[C@H]1C[C@@H](n2cc(NC(=O)c3csc(-c4cn[nH]c4)n3)c(-c3ccccn3)n2)C1 [II-15, N-(1-((1s,3s)-3-(dimethylamino)cyclobutyl)-3-(pyridin-2-yl)-1H-pyrazol-4-yl)-2-(1H-pyrazol-4-yl)thiazole-4-carboxamide]	–
400 nM	161 nM	O=C(Nc1cn(CCOCC(F)F)nc1-c1ccccn1)c1coc(-c2cn[nH]c2)n1 [III-8, N-(1-(2-(2,2-difluoroethoxy)ethyl)-3-(pyridin-2-yl)-1H-pyrazol-4-yl)-2-(1H-pyrazol-4-yl)oxazole-4-carboxamide]	–
27.8 nM	50.2 nM	O=C(Nc1cn(C2CCOC2)nc1-c1ccccn1)c1csc(-c2cn[nH]c2)n1 (centres unmarked) [II-43, 2-(1H-pyrazol-4-yl)-N-(3-(pyridin-2-yl)-1-(tetrahydrofuran-3-yl)-1H-pyrazol-4-yl)thiazole-4-carboxamide formic acid salt]	–
–	–	COC1CC(n2cc(NC(=O)c3ccc(-c4cn[nH]c4)o3)c(-c3ccccn3)n2)C1 (centres unmarked) [Compound I-75, N-(1-((1s,3s)-3-methoxycyclobutyl)-3-(pyridin-2-yl)-1H-pyrazol-4-yl)-5-(1H-pyrazol-4-yl)furan-2-carboxamide formate]	EC50 [1]: 102 nM; EC50 [2]: 19.5 nM
56 nM	89.8 nM	O=C(Nc1cn([C@H]2C[C@@H](OCCF)C2)nc1-c1ccccn1)c1csc(-c2cn[nH]c2)n1 [II-130, N-(1-((1s,3s)-3-(2-fluoroethoxy)cyclobutyl)-3-(pyridin-2-yl)-1H-pyrazol-4-yl)-2-(1H-pyrazol-4-yl)thiazole-4-carboxamide]	–
